Source: patent US9399649B2, “Compounds for treating spinal muscular atrophy” (PTC Therapeutics Inc., priority 2012, dated 2016)

Experiments:
[1] = tested on: gems (Smn-dependent nuclear speckles); assay: Gems count (Smn-dependent nuclear speckle count) assay; type: cell-based, human; conditions: SMA Type 1 patient cells, 48 hour, FIG. 9
From the text: The level of Smn protein directly correlates with the amount of nuclear foci, also known as gems, produced upon staining the cell with a fluorescently labeled anti-Smn antibody (Liu and Dreyfuss, EMBO J., 1996, 15:3555). Gems are multi-protein complexes whose formation is nucleated by the Smn protein and the gems count assay is used to evaluate the level of Smn protein in the cell. As described herein, the gems count assay is used to quantify the level of Smn protein in SMA patient fibroblast cells treated with a test compound.
Cells are thawed and incubated in DMEM-10% FBS for 72 hours, then trypsinized, counted and resuspended to 100,000 cells/mL in DMEM-10% FBS. 2 mL of the cell suspension is plated in a 6-well cell culture plate with a sterile cover slip and incubated for 3 to 5 hours. Test compounds are serially diluted 3.16-fold in 100% DMSO to generate a 7-point dilution curve. […]
Cell culture medium is aspirated from the wells containing cover slips and gently washed three times with cold PBS. […] The number of gems is counted per ≧150 nuclei and % activation is calculated using DMSO and 10 nM bortezomib as controls. For each test compound, the cells are examined at all wavelengths to identify test compounds with inherent fluorescence.

Smn protein = Smn protein levels in tissues of Δ7 SMA mice of the survival study; type: in vivo; conditions: Compound 65 until PND 144, Compound 69 until PND 80 and PND 83, relative to vehicle treated and age-matched heterozygous mice, FIG. 16
Description: The tissue samples in Safe-Lock tubes are weighed and the volume of RIPA buffer containing the protease inhibitor cocktail is added based on the weight to volume ratios for each type of tissue: Brain (50 mgmL), Muscle (50 mgmL) and Spinal Cord (25 mgmL).
Tissues are homogenized using the TissueLyzer by bead milling. 5 mm stainless steel beads are added to the sample and shaken vigorously for 5 minutes at 30 Hz in the TissueLyzer. The samples are then centrifuged for 20 minutes at 14,000×g in a microcentrifuge and the homogenates transferred to the PCR plate. The homogenates are diluted in RIPA buffer to approximately 1 mgmL for HTRF and approximately 0.5 mgmL for total protein measurement using the BCA protein assay. […] Fluorescence for each well of the plate at 665 nm and 620 nm is measured on an EnVision multilabel plate reader (Perkin-Elmer). The total protein in the tissue homogenate is measured using the BCA assay according to the manufacturer's protocol.
The normalized fluorescence signal is calculated for each sample, Blank and vehicle control well by dividing the signal at 665 nm by the signal at 620 nm. Normalizing the signal accounts for possible fluorescence quenching due to the matrix effect of the tissue homogenate. […] The ΔF value for each tissue sample well is divided by the total protein quantity (determined using the BCA assay) for that tissue sample. […]

## Cc1cn2cc(-c3cc4ccc(N5CCN(C)CC5)cc4c(=O)o3)nc2c(C)n1 [Cpd 65, 3-(6,8-dimethylimidazo[1,2-a]pyrazin-2-yl)-7-(4-methylpiperazin-1-yl)-1H-isochromen-1-one]
[1]
  gems (nuclear speckle) count relative to DMSO: progressively more gems
Smn protein
  Smn protein expression in brain and muscle tissues: increased Smn protein expression in brain and muscle tissues

## Cc1cn2cc(-c3cc4ccc(N5CCN6CCC[C@H]6C5)cc4c(=O)o3)nc2c(C)n1 [Cpd 69, 3-(6,8-dimethylimidazo[1,2-a]pyrazin-2-yl)-7-[(8aS)-hexahydropyrrolo[1,2-a]pyrazin-2(1H)-yl]-1H-isochromen-1-one]
[1]
  gems (nuclear speckle) count relative to DMSO: progressively more gems
Smn protein
  Smn protein expression in brain and muscle tissues: increased Smn protein expression in brain and muscle tissues
